Assay results published in article PMC9187519, “In vivo visualization of fluorescence reflecting CDK4 activity in a breast cancer mouse model” (MedComm, 2022).

Legend:
[1] = system: CDK4; parameters: method as in PMID 31482107; conditions: for CDK4; cited from earlier work
Excerpt: We next investigated whether CPP30‐Lipo/CDKACT4 could be used to monitor the inhibition by the CDK4 inhibitor palbociclib in living cells.

[2] = system: CDK4 kinase activity in MCF‐7 cells; assay: Cell microplate fluorescence imaging with CPP30‐Lipo/CDKACT4; assay type: cell-based, human; conditions: n = 3; for reduction of fluorescence intensity: probe 12 h
Description: (§1) Cells (∼8 × 10^3 cells per well) were seeded in black 96‐well plates and incubated with CPP30‐Lipo/CDKACT4 for 12 h after siRNA transfection or treatment with graded concentrations of palbociclib (HY‐50767; Medchemexpress). Then, the cells were washed three times with PBS and refilled with fresh PBS. Cell fluorescence signals were immediately detected using the IVIS Lumina II imaging system (PerkinElmer).

[3] = system: MCF‐7 cells; assay: Cell cycle analysis (propidium iodide, flow cytometry); assay type: cell-based, human; conditions: MCF‐7, increasing concentration of palbociclib, n = 3
Description: Cells were harvested and fixed in 70% ethanol at 4 °C overnight. Then, the samples were incubated in a solution of 10 mg/ml RNase and 1 mg/ml propidium iodide (Yeasen Biotech) at 37 °C for 30 min in the dark. The DNA content was determined using flow cytometry (Becton, Dickinson & Co.).

[4] = system: CDK4 kinase activity in T‐47D cells; assay: Cell microplate fluorescence imaging with CPP30‐Lipo/CDKACT4 in T‐47D; assay type: cell-based, human; conditions: different concentrations of palbociclib, n=3
Description: as §1

[5] = system: MCF‐7 tumor xenografts; assay: In‐vivo fluorescence imaging, MRI and tumor analysis of MCF‐7 tumor xenografts; parameters: species or system BALB/c nude mice; conditions: for change of tumor/muscle (T/M) fluorescence signal ratio: 150 mg/kg daily oral gavage 7 days, pre vs post, average, n = 6
Description: For MCF‐7 tumor model establishment, 6–8‐week old female BALB/c nude mice purchased from Xiamen University Laboratory Animal Center were first subcutaneously implanted with 60‐day release 17β‐estradiol pellets (Innovative Research of America) in the right side of the neck. Three days later, 2 × 10^6 MCF‐7 cells were injected subcutaneously in 1:1 PBS:Matrigel (BioCoat) into the right leg of the nude mice. Tumors were measured by caliper two or three times per week.
When MCF‐7 tumors grew to a volume of 75–100 mm^3, the mice were randomly divided into two groups (n = 6) and given palbociclib (150 mg/kg diluted in […] sodium D‐lactate) or sterile water daily by oral gavage. Magnetic resonance imaging was performed before (0 days) and 7 days after treatment using a 9.4T BioSpec MicroMRI (Bruker), and fluorescence imaging was also performed using the IVIS Lumina II imaging system (PerkinElmer) at the observation time points after intravenous injection with CPP30‐Lipo/CDKACT4 (10 μl/g body weight, containing 30 μM CDKACT4). After imaging, tumor tissue was collected for IHC staining.
Tumors were fixed in 4% paraformaldehyde, embedded in paraffin, and cut into 4‐μm slices. Then, the sections were stained with rabbit monoclonal antibody to Rb (Phospho S795) (1:100 dilution, ab47474; Abcam) or Ki67 (1:500 dilution, 9449; CST). Finally, the sections were observed under an optical microscope.

[6] = system: pRb (S795) in MCF‐7 cells; assay: Western blot of pRb (S795); assay type: cell-based, human
Description: Cells or minced tumor tissues were washed three times with ice‐cold PBS and lysed in RIPA buffer containing protease inhibitor cocktail (Roche Molecular Systems) and phosphatase inhibitor cocktail (Bimake). Tissues were further ground using a glass homogenizer on ice. Protein concentrations were determined with a BCA kit (Solarbio). Subsequent steps were performed as recently described.[36]

[7] = target: T1, CDK4/Cyclin D (Homo sapiens, UniProt P11802); assay: CDKACT4 biosensor fluorescence in MCF‐7 cell extracts; assay type: biochemical; conditions: incubation with cell extracts prepared with different concentrations of palbociclib, n = 5
T1 construct: Fluorescence changes of CDKACT4 biosensor incubated with MCF‐7 cell extracts; endogenous in cells; host or cells: MCF-7 breast cancer cell extracts
Description: We initially determined whether the CDKACT4 peptide biosensor that we synthesized was effective at monitoring CDK4 kinase activity in MCF‐7 breast cancer cell extracts.
FIGURE 2 Characterization and spectral stability of CPP30‐Lipo/CDKACT4. (A) Fluorescence changes of CDKACT4 biosensor incubated with MCF‐7 cell extracts (red), CDKACT4 alone (blue), and cell extracts alone (green) during 180 min (n = 5). (B) Relative fluorescence intensity of CDKACT4 biosensor incubated with MCF‐7 cell extracts was monitored over time after treatment with different concentrations of palbociclib (n = 5). (C) Relative fluorescence intensity of MCF‐7 cell extracts‐incubated CDKACT4 at 120 min post‐treated with different concentrations of palbociclib from (b) (n = 5, **p < 0.01). (D) Transmission electron microscopy (TEM) images of CPP30‐Lipo/CDKACT4. Scale bar = 200 nm. (E) Diameter distribution of CPP30‐Lipo/CDKACT4. (F, G) UV–vis absorption spectra (F) and fluorescence emission spectra (G) of water, 5‐TAMRA, CDKACT4, and CPP30‐Lipo/CDKACT4. (H, I) Changes in absorption and fluorescence spectra of CPP30‐Lipo/CDKACT4 during 96 h in water. The samples were stored at room temperature in the dark

T1 sequence (P11802 2-303 limits assumed): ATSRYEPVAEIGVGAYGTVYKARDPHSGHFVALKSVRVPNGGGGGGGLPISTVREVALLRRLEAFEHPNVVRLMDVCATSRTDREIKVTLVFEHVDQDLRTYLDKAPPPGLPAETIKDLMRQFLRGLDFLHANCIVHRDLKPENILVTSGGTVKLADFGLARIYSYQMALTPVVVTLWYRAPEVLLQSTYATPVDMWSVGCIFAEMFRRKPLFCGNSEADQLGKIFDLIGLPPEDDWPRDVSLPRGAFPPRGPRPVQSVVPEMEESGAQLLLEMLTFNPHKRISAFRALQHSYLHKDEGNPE
T1 sequence (P24385 whole entry partner): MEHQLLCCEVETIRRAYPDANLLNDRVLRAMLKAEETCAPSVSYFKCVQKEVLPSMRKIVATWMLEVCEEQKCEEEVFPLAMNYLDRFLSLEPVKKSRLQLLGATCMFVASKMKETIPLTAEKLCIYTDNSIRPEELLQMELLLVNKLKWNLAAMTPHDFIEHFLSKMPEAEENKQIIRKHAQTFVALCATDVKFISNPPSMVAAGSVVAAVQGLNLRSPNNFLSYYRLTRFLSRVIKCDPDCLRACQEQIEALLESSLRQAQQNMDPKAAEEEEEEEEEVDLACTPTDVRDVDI

## CCN1CCN(Cc2ccc(Nc3ncc(F)c(-c4cc(F)c5nc(C)n(C(C)C)c5c4)n3)nc2)CC1 [abemaciclib]
[1]
  IC50: […]
[2]; MCF‐7, inhibitor 10 nM
  reduction of fluorescence intensity: 14.37%
[2]; MCF‐7, inhibitor 100 nM
  reduction of fluorescence intensity: 50.13%
[2]; MCF‐7, inhibitor 1000 nM
  reduction of fluorescence intensity: 81.35%

## CC(=O)c1c(C)c2cnc(Nc3ccc(N4CCNCC4)cn3)nc2n(C2CCCC2)c1=O [palbociclib]
[3]
  cells arrested in the G1 phase: up to 86.39%
[4]
  fluorescence intensity of CPP30‐Lipo/CDKACT4: decreased with the increasing dose
[2]; MCF‐7, confocal/fluorescence microscopy after incubation with probe
  fluorescence intensity under a microscope: significant dose‐dependent reduction
[2]; MCF‐7, inhibitor 10 nM
  reduction of fluorescence intensity: 3.17%
[2]; MCF‐7, inhibitor 100 nM
  reduction of fluorescence intensity: 44.70%
[2]; MCF‐7, inhibitor 1000 nM
  reduction of fluorescence intensity: 60.67%
[5]; 12 h after caudal vein injection of probe
  change of tumor/muscle (T/M) fluorescence signal ratio: –18.86%
[5]; 24 h after caudal vein injection of probe
  change of tumor/muscle (T/M) fluorescence signal ratio: –18.69%
[5]; 48 h after caudal vein injection of probe
  change of tumor/muscle (T/M) fluorescence signal ratio: –18.49%
[5]; 150 mg/kg daily, day 0 vs day 7, n = 6
  longest diameter of the tumor by MRI: no significant change
[5]; after 14 days of treatment, n = 4
  tumor growth: significantly inhibited
[5]; baseline vs day 7, immunohistochemical staining pRb (S795)
  percentage of cells positive for pRb in tumors: clear reductions
[5]; during the 7 days of treatment, caliper
  tumor volume versus control group: no significant difference
[5]; palbociclib 7 days, 48 h post‐injection of probe, n = 3, p < 0.05
  ex vivo fluorescence intensity of tumors versus control group: significantly lower
[5]; palbociclib 7 days, immunohistochemical staining
  Ki‐67 staining in tumors: substantially reduced
[6]
  pRb (S795) protein level: dose‐dependent decrease
[7]
  fluorescence of the CDKACT4 peptide biosensor: decreased in a dose‐dependent manner
